{
  "source": "patent US6992105B2",
  "about": "“Dipeptide derivatives” (Novartis AG, priority 2001, dated 2006)",
  "key": {"[1]": {"test_system": "spontaneously hypertensive rat (SHR)", "assay": "anti-hypertensive activity in the spontaneously hypertensive rat (SHR)", "type": "in vivo", "details": "conscious SHR, once daily administration of 11.8 mg/kg p.o.", "excerpt": "The anti-hypertensive activity can be determined, e.g., in the spontaneously hypertensive rat (SHR) and the DOCA-salt hypertensive rat, e.g., according to Bazil et al., J. Cardiovasc. Pharmacol., Vol. 22, pp. 897–905 (1993) and Trapani et al., J. Cardiovasc. Pharmacol., Vol. 14, pp. 419–424 (1989), respectively."}, "[2]": {"test_system": "angiotensin I induced pressor response (ACE)", "assay": "inhibition of the angiotensin I induced pressor response in normotensive rats", "type": "in vivo, rat", "details": "11.8 mg/kg p.o., conscious normotensive rats", "description": "The in vivo test for i.v. administered compounds is performed with male, normotensive rats, which are conscious. A femoral artery and femoral vein are cannulated respectively for direct blood pressure measurement on i.v. administration of angiotensin I and i.v. or p.o. administration of a compound of this invention. After the basal blood pressure is stabilized, pressor responses to 3 or 4 challenges of 300 ng/kg angiotensin I i.v., at 15-minute intervals, are obtained. Such pressure responses are usually again obtained at 15, 30, 60 and 90 minutes, and then every hour up to 6 hours after i.v. or p.o. administration of the compound to be tested, and compared with the initial responses. Any observed decrease of said pressor response is an indication of ACE inhibition."}, "[3]": {"test_system": "plasma ANF concentration (NEP inhibition)", "assay": "effect on rat plasma ANF concentration", "type": "in vivo", "details": "11.8 mg/kg p.o., rats infused with ANF 450 ng/kg/min i.v.", "description": "The effect of the compounds of the invention on rat plasma ANF concentration can be determined as follows:\nMale Sprague-Dawley rats (275–390 g) are anesthetized with ketamine (150 mg/kg)/acepromazine (10%) and instrumented with catheters in the femoral artery and vein to obtain blood samples and infuse ANF, respectively. The rats are tethered with a swivel system and are allowed to recover for 24 hours before being studied in the conscious, unrestrained state.\nIn the assay, plasma ANF levels are determined in the presence and absence of NEP inhibition. On the day of study, all rats are infused continuously with ANF at 450 ng/kg/min. i.v. for the entire 5 hours of the experiment. Sixty minutes after beginning the infusion, blood samples for baseline ANF measurements are obtained (time 0) and the rats are then randomly divided into groups treated with the test compound or vehicle. Additional blood samples are taken 30, 60, 120, 180 and 240 minutes after administration of the test compound.\nPlasma ANF concentrations are determined by a specific radioimmunoassay. […] The supernatant is decanted and the pellets counted in a gamma counter. […] Plasma ANF levels are expressed as a percent of those measured in vehicle-treated animals which received ANF alone (450 ng/kg/min. i.v.)"}},
  "data": [
    {"compound": "CCOC(=O)[C@H](COCc1ccccc1)NC(=O)C(C)(C)NC(=O)[C@@H](SC(C)=O)C(C)C", "note": "[Example 1(a), N-[2-[(S)-2-Acetylthio-3-methylbutanoylamino]-2-methylpropionyl]-O-benzyl-L-serine ethyl ester]", "values": [
      {"measurement": "effect on mean arterial pressure", "setting": "[1]", "value": "reduces mean arterial pressure"},
      {"measurement": "duration of inhibition of the angiotensin I induced pressor response", "setting": "[2]", "value": 6, "unit": "h"},
      {"measurement": "increase of plasma ANF levels", "setting": "[3]", "value": "about 70%"}
    ]}
  ]
}
